# Data from BindingDB's records for doi:10.1016/j.ejmech.2021.113474 (Yanbian University, 2021).
# Target: Hypoxia-inducible factor 1-alpha (Homo sapiens, UniProt Q16665)
# Assay: Inhibition of hypoxia-induced HIF1alpha transcriptional activity in human Hep3B cells co-transfected with luciferase reporter plasmid containing six copies of HREs and pRL-CMV vector assessed as reduction in luciferase activity incubated for 24 hrs under hypoxic condition by HRE-dependent dual luciferase reporter gene assay
# Sequence of Hypoxia-inducible factor 1-alpha (Q16665 whole entry): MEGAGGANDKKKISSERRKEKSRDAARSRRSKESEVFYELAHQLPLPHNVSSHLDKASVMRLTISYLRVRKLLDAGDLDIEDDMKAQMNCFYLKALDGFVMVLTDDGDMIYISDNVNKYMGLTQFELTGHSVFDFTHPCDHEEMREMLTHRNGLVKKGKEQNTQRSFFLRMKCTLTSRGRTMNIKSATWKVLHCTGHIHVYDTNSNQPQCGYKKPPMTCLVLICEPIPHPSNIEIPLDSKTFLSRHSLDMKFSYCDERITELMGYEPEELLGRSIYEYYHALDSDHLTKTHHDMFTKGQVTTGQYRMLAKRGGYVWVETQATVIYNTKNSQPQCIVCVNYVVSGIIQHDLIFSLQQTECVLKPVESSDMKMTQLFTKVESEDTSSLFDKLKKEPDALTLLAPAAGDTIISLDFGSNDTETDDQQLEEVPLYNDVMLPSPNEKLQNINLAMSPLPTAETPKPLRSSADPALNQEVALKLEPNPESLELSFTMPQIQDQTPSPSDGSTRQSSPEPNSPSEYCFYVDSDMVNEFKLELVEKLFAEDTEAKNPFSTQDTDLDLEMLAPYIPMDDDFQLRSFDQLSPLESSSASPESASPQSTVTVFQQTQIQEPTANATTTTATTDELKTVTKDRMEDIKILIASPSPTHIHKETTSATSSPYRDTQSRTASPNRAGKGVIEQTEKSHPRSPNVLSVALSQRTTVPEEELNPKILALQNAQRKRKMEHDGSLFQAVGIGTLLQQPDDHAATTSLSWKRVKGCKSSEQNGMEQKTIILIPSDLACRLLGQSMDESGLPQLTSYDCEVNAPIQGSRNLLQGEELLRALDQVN
row,Structure (SMILES),IC50
1,CC1=C(O)C(=O)C=C2C1=CC=C1[C@@]2(C)CC[C@@]2(C)[C@@H]3C[C@](C)(C(=O)OCC(=O)Nc4ccc(F)cn4)CC[C@]3(C)CC[C@]12C,250 nM
2,CC1=C(O)C(=O)C=C2C1=CC=C1[C@@]2(C)CC[C@@]2(C)[C@@H]3C[C@](C)(C(=O)OCC(=O)Nc4cnc5ccccc5c4)CC[C@]3(C)CC[C@]12C,90 nM
3,CC1=C(O)C(=O)C=C2C1=CC=C1[C@@]2(C)CC[C@@]2(C)[C@@H]3C[C@](C)(C(=O)OCCOc4ccc5ccc(=O)oc5c4)CC[C@]3(C)CC[C@]12C,80 nM
4,CC1=C(O)C(=O)C=C2C1=CC=C1[C@@]2(C)CC[C@@]2(C)[C@@H]3C[C@](C)(C(=O)OCC(=O)NCc4cn(-c5ccccc5)nn4)CC[C@]3(C)CC[C@]12C,600 nM
5,CCOP(=O)(OCC)C(NC(=O)COC(=O)[C@]1(C)CC[C@]2(C)CC[C@]3(C)C4=CC=C5C(=CC(=O)C(O)=C5C)[C@]4(C)CC[C@@]3(C)[C@@H]2C1)c1ccc(F)cc1 (stereo not given in full),> 30000 nM
6,CC1=C(O)C(=O)C=C2C1=CC=C1[C@@]2(C)CC[C@@]2(C)[C@@H]3C[C@](C)(C(=O)OCC(=O)Nc4ccc(F)nc4)CC[C@]3(C)CC[C@]12C,160 nM
7,CC1=C(O)C(=O)C=C2C1=CC=C1[C@@]2(C)CC[C@@]2(C)[C@@H]3C[C@](C)(C(=O)OCC(=O)Nc4cc(C)on4)CC[C@]3(C)CC[C@]12C,70 nM
8,COc1ccc(-n2cc(CNC(=O)COC(=O)[C@]3(C)CC[C@]4(C)CC[C@]5(C)C6=CC=C7C(=CC(=O)C(O)=C7C)[C@]6(C)CC[C@@]5(C)[C@@H]4C3)nn2)cc1,> 30000 nM
9,CC1=C(O)C(=O)C=C2C1=CC=C1[C@@]2(C)CC[C@@]2(C)[C@@H]3C[C@](C)(C(=O)OCCOc4cccc5ncccc45)CC[C@]3(C)CC[C@]12C,> 30000 nM
10,CC1=C(O)C(=O)C=C2C1=CC=C1[C@@]2(C)CC[C@@]2(C)[C@@H]3C[C@](C)(C(=O)OCC(=O)Nc4ccnc5ccccc45)CC[C@]3(C)CC[C@]12C,490 nM
11,CC1=C(O)C(=O)C=C2C1=CC=C1[C@@]2(C)CC[C@@]2(C)[C@@H]3C[C@](C)(C(=O)OCC(=O)Nc4cccc5ncccc45)CC[C@]3(C)CC[C@]12C,360 nM
12,CC1=C(O)C(=O)C=C2C1=CC=C1[C@@]2(C)CC[C@@]2(C)[C@@H]3C[C@](C)(C(=O)OCC(=O)NCc4cn(-c5ccc(Cl)c(Cl)c5)nn4)CC[C@]3(C)CC[C@]12C,120 nM
13,CC1=C(O)C(=O)C=C2C1=CC=C1[C@@]2(C)CC[C@@]2(C)[C@@H]3C[C@](C)(C(=O)OCCOc4ccc5cccnc5c4)CC[C@]3(C)CC[C@]12C,170 nM
14,CC1=C(O)C(=O)C=C2C1=CC=C1[C@@]2(C)CC[C@@]2(C)[C@@H]3C[C@](C)(C(=O)OCCOc4cnc5ccccc5c4)CC[C@]3(C)CC[C@]12C,50 nM
15,CCOP(=O)(OCC)C(NC(=O)COC(=O)[C@]1(C)CC[C@]2(C)CC[C@]3(C)C4=CC=C5C(=CC(=O)C(O)=C5C)[C@]4(C)CC[C@@]3(C)[C@@H]2C1)c1ccccc1 (stereo not given in full),240 nM
16,CC1=C(O)C(=O)C=C2C1=CC=C1[C@@]2(C)CC[C@@]2(C)[C@@H]3C[C@](C)(C(=O)OCC(=O)Nc4ccc5ncccc5c4)CC[C@]3(C)CC[C@]12C,240 nM
17,CC1=C(O)C(=O)C=C2C1=CC=C1[C@@]2(C)CC[C@@]2(C)[C@@H]3C[C@](C)(C(=O)OCC(=O)Nc4cccc5cccnc45)CC[C@]3(C)CC[C@]12C,350 nM
18,CC1=C(O)C(=O)C=C2C1=CC=C1[C@@]2(C)CC[C@@]2(C)[C@@H]3C[C@](C)(C(=O)OCC(=O)Nc4ccncc4)CC[C@]3(C)CC[C@]12C,32000 nM
19,CC1=C(O)C(=O)C=C2C1=CC=C1[C@@]2(C)CC[C@@]2(C)[C@@H]3C[C@](C)(C(=O)OCCOc4cc(=O)oc5ccccc45)CC[C@]3(C)CC[C@]12C,150 nM
20,CC1=C(O)C(=O)C=C2C1=CC=C1[C@@]2(C)CC[C@@]2(C)[C@@H]3C[C@](C)(C(=O)OCC(=O)NCc4cn(-c5ccc(Cl)cc5)nn4)CC[C@]3(C)CC[C@]12C,> 30000 nM
21,CC1=C(O)C(=O)C=C2C1=CC=C1[C@@]2(C)CC[C@@]2(C)[C@@H]3C[C@](C)(C(=O)OCCOc4cc(C)oc(=O)c4)CC[C@]3(C)CC[C@]12C,150 nM
22,CCOP(=O)(OCC)C(NC(=O)COC(=O)[C@]1(C)CC[C@]2(C)CC[C@]3(C)C4=CC=C5C(=CC(=O)C(O)=C5C)[C@]4(C)CC[C@@]3(C)[C@@H]2C1)c1ccc(OC)cc1 (stereo not given in full),160 nM
23,C=c1c(O)c(O)cc2c1=CC=C1[C@@]2(C)CC[C@@]2(C)[C@@H]3C[C@](C)(C(=O)O)CC[C@]3(C)CC[C@]12C,250 nM
24,CCOP(=O)(OCC)C(NC(=O)COC(=O)[C@]1(C)CC[C@]2(C)CC[C@]3(C)C4=CC=C5C(=CC(=O)C(O)=C5C)[C@]4(C)CC[C@@]3(C)[C@@H]2C1)c1ccc(C)cc1 (stereo not given in full),> 30000 nM
25,CC1=C(O)C(=O)C=C2C1=CC=C1[C@@]2(C)CC[C@@]2(C)[C@@H]3C[C@](C)(C(=O)OCC(=O)NCc4cn(-c5ccc(C)cc5)nn4)CC[C@]3(C)CC[C@]12C,> 30000 nM
